Reference: patent publication US5081131A, “Omega-((hetero)alkyl)benz(cd)-indol-2-amines” (American Cyanamid Company, priority 1988, dated 1992)
Counter-ions that a name gives are not always drawn.

Legend:
[1] = test system: thevetin-induced arrhythmia in guinea pigs; assay: Thevetin (cardiac glycoside)-induced arrhythmia in guinea pigs; format: in vivo, guinea pig; details: for Time (Minutes) Before Induced Arrhythmia: saline 22.91±0.5 minutes
Method: Male guinea pigs, weighing 300-500 g each, from Summit View Farms, Belvidere, N.J., were anesthetized by intraperitoneal adminstration of urethan at 1500 mg/kg. The animals were then restrained in a supine position. Electrocardiogram leads were attached to the four limbs and Lead II of the electrocardiogram was monitored.
The neck region was exposed and the jugular vein was cannulated. The test compounds were dissolved in saline and administered intravenously at the indicated doses, via a cannula which was then flushed with saline. Five minutes after the test compound was administered, thevetin dissolved in saline was administered by infusion through a cannula at a dose of 0.1 mg/kg/minute in a volume of 0.1 ml. The time until the P wave of the electrocardiogram disappeared was determined.

[2] = target: T1, thromboxane synthetase enzyme (Rattus norvegicus, UniProt P49430); assay: Thromboxane synthetase enzyme inhibition (TXB2 formation in washed platelets, RIA); format: cell-based, spontaneously hypertensive rat; details: 1×10^-4 Molar, SHR platelets, 10 min at 37° C.; for inhibition at 100 µM: read-out: % Inhibition (Thromboxane Synthetase Enzyme Inhibition)
T1 construct: endogenous in cells; host or cells: washed platelets from arterial blood of male Okamoto-Aoki spontaneously hypertensive rats (animals from Taconic Farms, Germantown, N.Y.)
T1 sequence (P49430 1-533): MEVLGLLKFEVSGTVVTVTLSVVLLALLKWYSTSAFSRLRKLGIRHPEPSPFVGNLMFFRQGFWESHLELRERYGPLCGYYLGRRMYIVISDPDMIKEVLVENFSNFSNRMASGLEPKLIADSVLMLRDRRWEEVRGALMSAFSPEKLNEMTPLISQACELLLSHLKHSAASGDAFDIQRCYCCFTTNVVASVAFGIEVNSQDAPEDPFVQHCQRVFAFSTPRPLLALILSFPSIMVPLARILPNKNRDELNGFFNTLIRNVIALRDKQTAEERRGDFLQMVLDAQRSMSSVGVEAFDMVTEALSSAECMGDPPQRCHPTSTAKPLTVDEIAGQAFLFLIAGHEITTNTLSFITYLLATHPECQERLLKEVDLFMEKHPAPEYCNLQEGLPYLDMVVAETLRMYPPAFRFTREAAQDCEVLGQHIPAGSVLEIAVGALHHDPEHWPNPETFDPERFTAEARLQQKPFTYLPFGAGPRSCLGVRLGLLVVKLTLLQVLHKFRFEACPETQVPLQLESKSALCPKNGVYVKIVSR
Method: The blood was diluted with 3 ml cold saline and centrifuged at room temperature for 15 min at 468×g. The platelet rich plasma (PRP) was separated. The platelets were isolated by certrifuging the PRP for 10 minutes at 1060×g and washed in 4 ml cold oxygenated Krebs phosphate buffer, pH 7.4. The chilled platelets recovered from centrifuging at 800×g for 10 minutes were resuspended in oxygenated Krebs phosphate buffer and diluted to contain 4.0-6.0×10^4 platelets/micro-liters. The inhibition of TX formation was studied by determining the concentration of thromboxane B2 (TXB2), the stable hydrolysis product of TXA2. Assay samples prepared on ice, contained 200 micro-liters platelet suspension, 50 micro-liters saline, and 50 micro-liters […] (saline) or drug under study. The test drug (0.003 mole) was dissolved in 5 ml of saline. […] The assay samples were incubated for 10 minutes at 37° C. in a metabolic shaker at about 60 rpm. The reaction was terminated by immersing the tubes in an ice bath and adding 50 micro-liters of 0.5M citric acid. The samples were centrifuged for 10 minutes at 2000 rpm at 4° C., and the supernatants were decanted.

[3] = test system: spontaneously hypertensive rats; assay: Hypotensive activity in spontaneously hypertensive rats (MABP); format: in vivo, rat (Okamoto strain); details: SHR, gavage, two doses of 10 mg/kg or less 24 h apart, MABP at 28 h; average baseline 160±1.5 mm Hg
Summary of the method: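 Male 16-week Okamoto spontaneously hypertensive rats dosed by gavage in 2% starch at 10 mg/kg or less with 0.9% NaCl loading 25 ml/kg; identical dose without saline given 24 hours later. Mean arterial blood pressure measured 28 hours after first dose; 1 to 4 rats per compound.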

[4] = intravenous doses as high as 20 mg/kg

SMILES	inhibition at 100 µM [2] [%]	Avg. MABP in mm Hg (No. of Rats) [3] [mm Hg]	other results
CC(C)NC[C@H](O)COc1cccc2ccccc12 (racemic) [Propanolol, reference compound]	–	–	activity in thevetin-induced arrhythmia test ([1]; intravenous dose of 2 mg/kg): active; time protected before arrhythmia occurred ([1]; intravenous dose of 2 mg/kg): 47.0 ± 4.1 min
O=C(CNC1=Nc2cccc3cccc1c23)NCCCn1ccnc1 [2-(Benz(cd)indol-2-ylamino)-N-(3-(1H-imidazol-1-yl)propyl)acetamide]	100	–	Time (Minutes) Before Induced Arrhythmia ([1]; IV dose 25 mg/kg): 33 min
CC(CCNC1=Nc2c(Cl)cc(Cl)c3cccc1c23)n1ccnc1 (stereo not shown) [6,8-Dichloro-N-(3-(1H-imidazol-1-yl)butyl)benz(cd)indol-2-amine]	–	102	Time (Minutes) Before Induced Arrhythmia ([1]; IV dose 20 mg/kg): 32 min
Clc1cc(Cl)c2cccc3c2c1N=C3NCCCCCn1ccnc1 [6,8-Dichloro-N-(5-(1H-imidazol-1-yl)pentyl)benz(cd)indol-2-amine]	–	119	Time (Minutes) Before Induced Arrhythmia ([1]; IV dose 20 mg/kg): 33.4 min
CC(CCNC1=Nc2ccc(Br)c3cccc1c23)n1ccnc1 (stereo not shown) [6-Bromo-N-(3-(1H-imidazol-1-yl)butyl)benz(cd)indol-2-amine]	100	120	Time (Minutes) Before Induced Arrhythmia ([1]; IV dose 30 mg/kg): 34.7 min
Brc1ccc2c3c(cccc13)C(NCCCCCn1ccnc1)=N2 [6-Bromo-N-(5-(1H-imidazol-1-yl)pentyl)benz(cd)indol-2-amine]	97	118	Time (Minutes) Before Induced Arrhythmia ([1]; IV dose 20 mg/kg): 37 min
Clc1ccc2c3c(cccc13)C(NCCCCn1ccnc1)=N2.O=C(O)/C=C/C(=O)O [6-Chloro-N-(4-(1H-imidazol-1-yl)butyl)benz(cd)indol-2-amine, fumarate]	100	115	Time (Minutes) Before Induced Arrhythmia ([1]; IV dose 10 mg/kg): 31.5 min
C(=C\Cn1ccnc1)/CNC1=Nc2cccc3cccc1c23 [(E)-N-(4-(1H-imidazol-1-yl)-2-butenyl)benz(cd)indol-2-amine, hydriodide]	100	–	Time (Minutes) Before Induced Arrhythmia ([1]; IV dose 10 mg/kg): 34.3 min
O=C(O)c1ccc(OCCn2ccnc2)cc1 [Dazoxiben hydrochloride, 4-(2-(1H-imidazol-l-yl)ethoxy)benzoic acid, monohydrochloride, reference compound]	–	–	activity in thevetin-induced arrhythmia test [1, 4]: inactive; time before arrhythmia occurred [1, 4]: 22.2 ± 1.9 min
CC(CCNC1=Nc2ccc(S(=O)(=O)N(C)C)c3cccc1c23)n1ccnc1 (stereo not shown) [N,N-Dimethyl-2-((3-(1H-imidazol-1-yl)butyl)amino)benz(cd)indol-6-sulfonamide]	99	–	Time (Minutes) Before Induced Arrhythmia ([1]; IV dose 10 mg/kg): 33.6 min
CN(C)S(=O)(=O)c1ccc2c3c(cccc13)C(NCCCn1ccnc1)=N2 [N,N-Dimethyl-2-((3-(1H-imidazol-1-yl)propyl)amino)benz(cd)indol-6-sulfonamide]	100	–	Time (Minutes) Before Induced Arrhythmia ([1]; IV dose 20 mg/kg): 33.4 min
c1cncc(CCNC2=Nc3cccc4cccc2c34)c1 [N-(2-(3-Pyridinyl)ethyl)benz(cd)indol-2-amine sesqui-fumarate]	99	126	Time (Minutes) Before Induced Arrhythmia ([1]; IV dose 20 mg/kg): 37 min
O=C(O)/C=C/C(=O)O.c1ccc(C(CCn2ccnc2)NC2=Nc3cccc4cccc2c34)cc1 (stereo not shown) [N-(3-(1H-imidazol-1-yl)-1-phenylpropyl)benz(cd)indol-2-amine, fumarate]	100	–	Time (Minutes) Before Induced Arrhythmia ([1]; IV dose 30 mg/kg): 34 min
c1ccc(C(CNC2=Nc3cccc4cccc2c34)(Cn2ccnc2)c2ccccc2)cc1 [N-(3-(1H-imidazol-1-yl)-2,2-diphenylpropyl)benz(cd)indol-2-amine]	75	127	Time (Minutes) Before Induced Arrhythmia ([1]; IV dose 10 mg/kg): 41 min
CC(CNC1=Nc2cccc3cccc1c23)Cn1ccnc1.O=C(O)/C=C/C(=O)O (stereo not shown) [N-(3-(1H-imidazol-1-yl)-2-methylpropyl)benz(cd)indol-2-amine, fumarate]	–	–	Time (Minutes) Before Induced Arrhythmia ([1]; IV dose 20 mg/kg): 34.5 min; % Inhibition (Thromboxane Synthetase Enzyme Inhibition) [2]: 100%
Cl.Cl.c1cc2c3c(cccc3c1)C(NCCCn1ccnc1)=N2 [N-(3-(1H-imidazol-1-yl)propyl)benz(cd)indol-2-amine, dihydrochloride]	–	87	Time (Minutes) Before Induced Arrhythmia ([1]; IV dose 10 mg/kg): 48.5 min; % Inhibition (Thromboxane Synthetase Enzyme Inhibition) [2]: 85%
O=C(O)/C=C/C(=O)O.c1cc2c3c(cccc3c1)C(NCCCCn1ccnc1)=N2 [N-(4-(1H-imidazol-1-yl)butyl)benz(cd)indol-2-amine, fumarate]	–	106	Time (Minutes) Before Induced Arrhythmia ([1]; IV dose 10 mg/kg): 31 min; % Inhibition (Thromboxane Synthetase Enzyme Inhibition) [2]: 100%
Cl.Cl.c1cc2c3c(cccc3c1)C(NCCCCCCCCn1ccnc1)=N2 [N-(8-(1H-imidazol-1-yl)octyl)benz(cd)indol-2-amine, dihydrochloride]	100	111	–
O=C(O)/C=C/C(=O)O.c1cc2c3c(cccc3c1)C(NCCCCCCCCCCn1ccnc1)=N2 [N-(10-(1H-imidazol-1-yl)decyl)benz(cd)indol-2-amine, fumarate]	65	124	Time (Minutes) Before Induced Arrhythmia ([1]; IV dose 10 mg/kg): 34.2 min
c1cc2c3c(cccc3c1)C(NCCCCCCCCCCCCn1ccnc1)=N2 [N-(12-(1H-imidazol-1-yl)dodecyl)benz(cd)indol-2-amine]	97	133	–
O=C(O)/C=C/C(=O)O.c1cc2c3c(cccc3c1)C(NCc1ccc(Cn3ccnc3)cc1)=N2 [N-((4-(1H-imidazol-1-ylmethyl)phenyl)methyl)benz(cd)indol-2-amine, fumarate]	100	121	–
O=C(c1ccccc1)N(CCCn1ccnc1)C1=Nc2cccc3cccc1c23 [N-Benz(cd)indol-2-yl-N-(3-(1H-imidazol-1-yl)propyl)benzamide]	94.5	95	–
O=S(=O)(c1ccccc1)N(CCCn1ccnc1)C1=Nc2cccc3cccc1c23 [N-Benz(cd)indol-2-yl-N-(3-(1H-imidazol-1-yl)propyl)benzenesulfonamide]	93	135	–
CC(=O)N(CCCc1cccnc1)C1=Nc2cccc3cccc1c23 [N-Benz(cd)indol-2-yl-N-(3-(3-pyridinyl)propyl)acetamide]	95	85	–
COc1ccccc1C(=O)N(CCCCn1ccnc1)C1=Nc2cccc3cccc1c23 [N-Benz(cd)indol-2-yl-N-(4-(1H-imidazol-1-yl)butyl)-2-methoxybenzamide]	93	76	–
CC(=O)N(CCCCn1ccnc1)C1=Nc2cccc3cccc1c23 [N-Benz(cd)indol-2-yl-N-(4-(1H-imidazol-1-yl)butyl)acetamide]	98.5	81	–
CC(=Cc1ccc(Cc2cccnc2)cc1)C(=O)O [OKY-1581, 2-methyl-3-(4-(3-pyridinylmethyl)phenyl-2-propenoic acid, sodium salt, reference compound]	–	–	activity in thevetin-induced arrhythmia test [1, 4]: inactive; time before arrhythmia occurred [1, 4]: 24.3 ± 2.2 min
Cc1ccc(S(=O)(=O)Nc2ccc3c4c(cccc24)C(NCCCCn2ccnc2)=N3)cc1 [monoacetate]	79	125	–
